Measured values as given in ChEMBL document CHEMBL1156723, “Structure-activity relationship study on a novel series of cyclopentane-containing macrocyclic inhibitors of the hepatitis C virus NS3/4A protease leading to the discovery of TMC435350” (Bioorg Med Chem Lett, 2008).
Blank lines part the entries; values can stand above or below the compound they belong to.

Tests used:
[1] = Inhibition of recombinant full length HCV NS3/4A protease; set-up: species or system Hepacivirus hominis
[2] = Bile excretion of compound in rat at 1 mg/kg, iv after 1 hr; type: ADME, organism-based; set-up: dose 1 mg/kg, route intravenous; conditions: read-out: Activity
[3] = Metabolic stability in human liver microsomes assessed as intrinsic clearance; type: ADME, Microsome
Liver microsomes = test: Metabolic stability in rat liver microsomes assessed as intrinsic clearance; type: ADME, Microsome
Hepatitis C virus = test: Antiviral activity against HCV in human Huh7 cells assessed as luciferase activity; type: functional, organism-based, Hepacivirus hominis; conditions: Huh-7
[4] = Clearance in Sprague-Dawley rat at 2 mg/kg, iv; type: ADME, organism-based; set-up: dose 2 mg/kg, route intravenous; conditions: in vivo
[5] = AUC in Sprague-Dawley rat at 10 mg/kg, po; type: ADME, organism-based; set-up: dose 10 mg/kg, route oral; conditions: plasma
[6] = Cmax in Sprague-Dawley rat at 10 mg/kg, po; type: ADME, organism-based; set-up: dose 10 mg/kg, route oral; conditions: in vivo
[7] = Oral bioavailability in Sprague-Dawley rat at 10 mg/kg, po; type: ADME, organism-based; conditions: in vivo
[8] = Tmax in Sprague-Dawley rat at 10 mg/kg, po; type: ADME, organism-based; set-up: dose 10 mg/kg, route oral; conditions: in vivo
[9] = Volume of distribution at steady state in Sprague-Dawley rat at 2 mg/kg, iv; type: ADME, organism-based; set-up: dose 2 mg/kg, route intravenous; conditions: in vivo, read-out: Vdss
[10] = Half life in Sprague-Dawley rat at 10 mg/kg, po; type: ADME, organism-based; set-up: dose 10 mg/kg, route oral; conditions: in vivo
[11] = Ratio of drug level in liver to plasma in Sprague-Dawley rat at 10 mg/kg, po after 8 hrs; type: ADME, organism-based; set-up: dose 10 mg/kg, route oral
[12] = Ratio of drug level in liver to plasma in Sprague-Dawley rat at 2 mg/kg, iv after 8 hrs; type: ADME, organism-based; set-up: dose 2 mg/kg, route intravenous
[13] = AUC in Sprague-Dawley rat at 2 mg/kg, iv; type: ADME, organism-based; set-up: dose 2 mg/kg, route intravenous; conditions: plasma
[14] = Ratio of drug level in liver to plasma in Sprague-Dawley rat at 2 mg/kg, iv after 6 hrs; type: ADME, organism-based; set-up: dose 2 mg/kg, route intravenous
[15] = Ratio of drug level in liver to plasma in Sprague-Dawley rat at 10 mg/kg, po after 6 hrs; type: ADME, organism-based; set-up: dose 10 mg/kg, route oral

SMILES: C=C[C@@H]1C[C@]1(NC(=O)[C@@H]1C[C@@H](Oc2cc(-c3ccccc3)nc3cc(OC)ccc23)C[C@H]1C(=O)N[C@H](C(=O)N[C@H](C(=O)NC)C1CCCCC1)C(C)(C)C)C(=O)O
Ki [1]: 22 nM

SMILES: COc1ccc2c(O[C@@H]3C[C@H]4C(=O)N[C@]5(C(=O)NS(=O)(=O)C6CC6)C[C@H]5/C=C\CCCCN(C)C(=O)[C@@H]4C3)cc(-c3nc(C(C)C)cs3)nc2c1F
EC50 (Hepatitis C virus): 57 nM
Ki [1]: 0.55 nM

SMILES: COc1ccc2c(O[C@@H]3C[C@H]4C(=O)N[C@]5(C(=O)NS(=O)(=O)C6CC6)C[C@H]5/C=C\CCCCN(C)C(=O)[C@@H]4C3)cc(-c3nc(C(C)C)cs3)nc2c1
microsomal CLint [3]: 16 µL/min/mg
EC50 (Hepatitis C virus): 17 nM
Ki [1]: 0.84 nM

SMILES: CCc1c(OC)ccc2c(O[C@@H]3C[C@H]4C(=O)N[C@]5(C(=O)NS(=O)(=O)C6CC6)C[C@H]5/C=C\CCCCN(C)C(=O)[C@@H]4C3)cc(-c3nc(C(C)C)cs3)nc12
EC50 (Hepatitis C virus): 66 nM
Ki [1]: 3.1 nM

SMILES: COc1ccc2c(O[C@@H]3C[C@H]4C(=O)N[C@]5(C(=O)NS(=O)(=O)C6CC6)C[C@H]5/C=C\CCCCN(C)C(=O)[C@@H]4C3)cc(-c3csc(NC(C)C)n3)nc2c1
microsomal CLint [3]: 15 µL/min/mg
EC50 (Hepatitis C virus): 17 nM
Ki [1]: 1.4 nM

Compounds with a lower Ki [1], results first:

dose excreted at 1 h [2]: 95%
microsomal CLint [3]: 46 µL/min/mg
clearance (Liver microsomes): 46 µL/min/mg
EC50 (Hepatitis C virus): 9 nM
Ki [1]: 0.41 nM
SMILES: COc1ccc2c(O[C@@H]3C[C@H]4C(=O)N[C@]5(C(=O)NS(=O)(=O)C6CC6)C[C@H]5/C=C\CCCCN(C)C(=O)[C@@H]4C3)cc(-c3ccccc3)nc2c1

clearance [4]: 41.7 mL/min/kg
AUC [5]: 1.3 µM·h
Cmax [6]: 310 nM
bioavailability [7]: 25%
Tmax [8]: 1.5 h
Vd [9]: 4.6 L/kg
microsomal CLint [3]: < 6 µL/min/mg
half-life [10]: 2.2 h
Kp at 8 h [11]: 44
Kp at 8 h [12]: 23.5
EC50 (Hepatitis C virus): 9.7 nM
AUC [13]: 1.05 µM·h
Ki [1]: 0.16 nM
SMILES: COc1ccc2c(O[C@@H]3C[C@H]4C(=O)N[C@]5(C(=O)NS(=O)(=O)C6CC6)C[C@H]5/C=C\CCCCN(C)C(=O)[C@@H]4C3)cc(-n3ccc(C(C)C)n3)nc2c1C

microsomal CLint [3]: 9 µL/min/mg
EC50 (Hepatitis C virus): 2.9 nM
Ki [1]: 0.1 nM
SMILES: COc1ccc2c(O[C@@H]3C[C@H]4C(=O)N[C@]5(C(=O)NS(=O)(=O)C6CC6)C[C@H]5/C=C\CCCCN(C)C(=O)[C@@H]4C3)cc(-c3nc(C(C)C)cs3)nc2c1Cl

microsomal CLint [3]: 38 µL/min/mg
EC50 (Hepatitis C virus): 11 nM
Ki [1]: 0.2 nM
SMILES: COc1ccc2c(O[C@@H]3C[C@H]4C(=O)N[C@]5(C(=O)NS(=O)(=O)C6CC6)C[C@H]5/C=C\CCCCN(C)C(=O)[C@@H]4C3)cc(-c3nccs3)nc2c1

clearance [4]: 23.3 mL/min/kg
AUC [5]: 1.4 µM·h
Cmax [6]: 300 nM
bioavailability [7]: 31%
Tmax [8]: 2 h
Vd [9]: 0.7 L/kg
microsomal CLint [3]: < 6 µL/min/mg
half-life [10]: 5.8 h
EC50 (Hepatitis C virus): 6.8 nM
AUC [13]: 1.36 µM·h
Ki [1]: 0.3 nM
SMILES: COc1ccc2c(O[C@@H]3C[C@H]4C(=O)N[C@]5(C(=O)NS(=O)(=O)C6CC6)C[C@H]5/C=C\CCCCN(C)C(=O)[C@@H]4C3)cc(-c3cccc(C(C)C)n3)nc2c1C

clearance [4]: 8.42 mL/min/kg
AUC [5]: 2.79 µM·h
Cmax [6]: 730 nM
Kp at 6 h [14]: 63.5
bioavailability [7]: 11%
Tmax [8]: 3 h
Vd [9]: 0.49 L/kg
microsomal CLint [3]: < 6 µL/min/mg
half-life [10]: 2.8 h
Kp at 6 h [15]: 32
EC50 (Hepatitis C virus): 7.8 nM
AUC [13]: 5.21 µM·h
Ki [1]: 0.36 nM
SMILES: COc1ccc2c(O[C@@H]3C[C@H]4C(=O)N[C@]5(C(=O)NS(=O)(=O)C6CC6)C[C@H]5/C=C\CCCCN(C)C(=O)[C@@H]4C3)cc(-c3nc(C(C)C)cs3)nc2c1C [SIMEPREVIR]
